# Ends that are not written are not given here.
# Assays:
# B16F10 = test: MTS assay, relative cell viability, B16F10; type: cell-based, murine
# Procedure: (§1) Individual cell lines (HeLa, CT26, and B16F10) were purchased from the Korean Cell Line Bank. Dulbecco's modified Eagle's medium (DMEM), trypsin-EDTA, fetal bovine serum (FBS), and Hank's balanced salt solution (HBSS) were products from Gibco (Thermo Fisher).
# (§2) Each of the cell lines was cultured in DMEM supplemented with 10% FBS in an incubator maintained at 37° C. and 5% 002.
# (§3) Examination was made to see whether the peptide has the activity of inducing cell death in other cancer cell lines. In this regard, the cancer cell lines HeLa, CT26, and B16F10 were treated with eMTDΔ4 (SEQ ID NO: 2) at concentrations of 0, 20, and 40 μM.
# HeLa [1] = test: MTS assay, relative cell viability, HeLa; type: cell-based, human; conditions: 10 μM, Table 4
# MDA-MB-231 cells = test: Atomic force microscopy of pores formed on the cell membrane; type: cell-based
# Procedure: In this regard, MDA-MB-231 cells were treated with eMTDΔ4 (SEQ ID NO: 2) and pores formed on the cell membrane were observed using an atomic force microscope.
# HeLa cells [2] = test: Mitochondrial ROS generation, MitoSox, confocal; type: cell-based, human; conditions: MitoSox 5 μM, 10 min, 20 μM peptide (FIG. 8)
# Procedure: In brief, HeLa cells were grown to 70% confluency on a Lab-Tek chamber glass slide one day before the experiment. The cells were stained for 10 min with 5 μM of the mitochondrial ROS indicator MitoSox (Invitrogen) in order to visualize ROS generation. Then, the cells were incubated with eMTDΔ4 (SEQ ID NO: 2) for 10 min during which confocal micrographic images were taken to monitor cell morphologies and ROS generation.
# HeLa cells [3] = test: Microscopic observation of morphological change in cells; type: cell-based, human; conditions: 20 μM, 3 min
# Procedure: In order to observe morphological changes in cells in detail, the cells were incubated with 20 μM of the peptide eMTDΔ4 (SEQ ID NO: 2) and observed with the aid of a microscope (Leica). The results are depicted in FIG. 2.
# HeLa [4] = test: MTS assay, relative cell viability, HeLa; type: cell-based, human
# Procedure: as §1, §2
# For use in assaying the peptides eMTD (SEQ ID NO: 1) and eMTDΔ4 (SEQ ID NO: 2) synthesized in Example 1 for activity of inducing cell death, the cell line HeLa was grown to about 90% confluency in 96-well plates. The cells were washed once with HBSS buffer before treatment with the peptides of the present disclosure eMTD (SEQ ID NO: 1) and eMTDΔ4 (SEQ ID NO: 2) at concentrations of 0, 20, and 40 for one hour. Thereafter, the cells were incubated with an MTS assay agent (Promega) for one hour, followed by reading absorbance to calculate relative viability of cells.
# as §3
# [5] = test system: mitochondria isolated from livers of BalB/C mice; test: Mitochondrial swelling, absorbance at 540 nm / TEM; type: biochemical; conditions: for Mitochondrial swelling, relative absorbance at 540 nm: peptides 25 μM, Ca2+ 200 μM, CsA 20 μM
# Procedure: First, livers excised from 6-week-old BalB/C mice were immersed in buffer (250 mM mannitol, […], 5 mM HEPES, pH 7.4, 0.1 mM PMSF and 4 rotenone) and completely homogenized using a Teflon Potter-Elvehjem grinder (Sigma). The ground liver was centrifuged at 1000×g for 10 min at 4° C. and the supernatants were centrifuged at 10,000×g for 10 min at 4° C. The pellets thus obtained were suspended in a regeneration buffer (250 mM sucrose, 10 mM HEPES, pH 7.4, 5 mM sodium succinate, 2 mM potassium phosphate, 0.1 mM PMSF, 25 μM EGTA, and 4 rotenone).
# The mitochondria thus obtained were treated with 25 μM of eMTD (SEQ ID NO: 1) or eMTDΔ4 (SEQ ID NO: 2), followed by reading absorbance at 540 nm to determine mitochondrial swelling.
# HeLa cells [6] = test: Intracellular calcium level, Fluo-4, confocal microscope; type: cell-based, human; conditions: Fluo-4, 20 μM (FIG. 4)
# Procedure: In order to examine the mechanism in which the peptide eMTD (SEQ ID NO: 1) induces cell death in cancer cell lines, a change in intracellular calcium level, which is known as an important factor for cell death, was observed using the calcium indicator Fluo-4 under a confocal microscope (Leica).
# In brief, HeLa cells were grown to about 70% confluency in a Lab-Tek chamber glass a day before the experiment. Immediately before the experiment, of the calcium indicator Fluo-4 was diluted to a concentration of 5 in HBSS. HeLa cells were incubated with the dilution for 10 min in an incubator and then treated with the peptide eMTDΔ4 (SEQ ID NO: 2).
sequence,measurement,setting,value
KLNFRQKLLNLISKLF [eMTDΔ4],Viability (%),"B16F10; B16F10, 10 μM",68%
same,Viability (%),"B16F10; B16F10, 20 μM",33%
same,induction of cell death (in words),"B16F10; B16F10, FIG. 3 and Table 4",induce cell death
same,Viability (%),HeLa [1],47%
same,Counts of membrane pores,"MDA-MB-231 cells; Length 0.675~0.975, t = 30 sec",38.03
same,Counts of membrane pores,"MDA-MB-231 cells; Length 0.675~0.975, t = 2 min",20.63
same,Counts of membrane pores,"MDA-MB-231 cells; Length 0.675~0.975, t = 5 min",14.81
same,Counts of membrane pores,"MDA-MB-231 cells; Length 0.675~0.975, t = 40 min",2.5
same,Counts of membrane pores,"MDA-MB-231 cells; Length 1.025~1.325, t = 30 sec",43.66
same,Counts of membrane pores,"MDA-MB-231 cells; Length 1.025~1.325, t = 2 min",38.1
same,Counts of membrane pores,"MDA-MB-231 cells; Length 1.025~1.325, t = 5 min",39.51
same,Counts of membrane pores,"MDA-MB-231 cells; Length 1.025~1.325, t = 40 min",22.5
same,Counts of membrane pores,"MDA-MB-231 cells; Length 1.375~1.675, t = 30 sec",9.859
same,Counts of membrane pores,"MDA-MB-231 cells; Length 1.375~1.675, t = 2 min",20.63
same,Counts of membrane pores,"MDA-MB-231 cells; Length 1.375~1.675, t = 5 min",20.99
same,Counts of membrane pores,"MDA-MB-231 cells; Length 1.375~1.675, t = 40 min",22.5
same,Counts of membrane pores,"MDA-MB-231 cells; Length 1.725~2.025, t = 30 sec",4.225
same,Counts of membrane pores,"MDA-MB-231 cells; Length 1.725~2.025, t = 2 min",14.29
same,Counts of membrane pores,"MDA-MB-231 cells; Length 1.725~2.025, t = 5 min",13.58
same,Counts of membrane pores,"MDA-MB-231 cells; Length 1.725~2.025, t = 40 min",22.5
same,Counts of membrane pores,"MDA-MB-231 cells; Length 2.075~2.725, t = 30 sec",2.817
same,Counts of membrane pores,"MDA-MB-231 cells; Length 2.075~2.725, t = 2 min",6.349
same,Counts of membrane pores,"MDA-MB-231 cells; Length 2.075~2.725, t = 5 min",9.877
same,Counts of membrane pores,"MDA-MB-231 cells; Length 2.075~2.725, t = 40 min",22.5
same,Counts of membrane pores,"MDA-MB-231 cells; Length 2.775<, t = 30 sec",0
same,Counts of membrane pores,"MDA-MB-231 cells; Length 2.775<, t = 2 min",0
same,Counts of membrane pores,"MDA-MB-231 cells; Length 2.775<, t = 5 min",1.235
same,Counts of membrane pores,"MDA-MB-231 cells; Length 2.775<, t = 40 min",7.5
same,Counts of membrane pores,"MDA-MB-231 cells; Length >0.625, t = 30 sec",1.408
same,Counts of membrane pores,"MDA-MB-231 cells; Length >0.625, t = 2 min",0
same,Counts of membrane pores,"MDA-MB-231 cells; Length >0.625, t = 5 min",0
same,Counts of membrane pores,"MDA-MB-231 cells; Length >0.625, t = 40 min",0
same,pore formation on cell membrane (in words),"MDA-MB-231 cells; MDA-MB-231, FIG. 10d and Table 7",larger pores were formed with time
same,mitochondrial ROS level,HeLa cells [2],abruptly increased in ROS level just after the cell membrane bubbling
same,morphological change in cells,HeLa cells [3],most of the cells were observed to undergo necrosis with the consequent rupture of cell membranes after 3 min
same,Viability (%),"HeLa [4]; 20 μM, Table 4",11%
same,Viability (%),"HeLa [4]; 20 μM, one hour treatment, Table 3",53%
same,Viability (%),"HeLa [4]; 40 μM, one hour treatment, Table 3",40%
same,cell death activity (in words),HeLa [4]; FIG. 1 and Table 3,potent cell death activity
same,induction of cell death (in words),HeLa [4]; FIG. 3 and Table 4,induce cell death
same,mitochondrial swelling (in words),"[5]; 25 μM, absorbance 540 nm and TEM, FIGS. 6A and 6B",induce mitochondrial swelling
same,"Mitochondrial swelling, relative absorbance at 540 nm",[5]; Minute 0,100%
same,"Mitochondrial swelling, relative absorbance at 540 nm",[5]; Minute 10,79%
same,"Mitochondrial swelling, relative absorbance at 540 nm",[5]; Minute 20,74%
same,"Mitochondrial swelling, relative absorbance at 540 nm",[5]; Minute 30,70%
same,"Mitochondrial swelling, relative absorbance at 540 nm",[5]; Minute 40,68%
same,"Mitochondrial swelling, relative absorbance at 540 nm",[5]; Minute 50,66%
same,"Mitochondrial swelling, relative absorbance at 540 nm",[5]; Minute 60,65%
same,change in intracellular calcium level,HeLa cells [6],calcium influx into the cytosols thereof within less than one min
